Laboratory results: patent publication US20080262081A1, “Novel Use of Nutraceutical Compositions Comprising Resveratrol” (priority 2005, published 2008)

System: phosphorylated p70S6K (Thr389)
Experiment: Phosphorylated p70S6K (Thr389) level in insulin-stimulated C3H10T1/2 cells (Western blot)
Type: cell-based, Mouse
Parameters: key to Phosphorylated p70S6K (Thr389) level, % vs. Vehicle: *: under detectable level
Conditions: for Phosphorylated p70S6K (Thr389) level, % vs. Vehicle: vehicle = 100%
Method: Mouse embryonic mesenchymal stem cells, C3H10T1/2 cells, (ATCC, USA, #CCL-226), were cultured in DMEM (low glucose […], Gibco), supplemented with 10% FBS and 2 mM L-Glutamine (Gibco). 2×10^5 cells /well were seeded in 6-well plate and grown to 80% confluency. Cells were treated with either rapamycin (Tocris, UK, #1292) at 100 nM, EGCG (TEAVIGO®, DSM Nutritional Product ltd. Switzerland) at 10 microM , resveratrol (DSM Nutritional Products Ltd. Switzerland) at 0.1, 1, 10 μM or combination of EGCG (10 microM) and resveratrol (0.1,1, 10 μM) for 30 min, then stimulated with insulin (Sigma, Switzerland) at 100 nM for 30 min. Cells were washed twice with PBS and harvested in 0.4 ml NETT buffer (0.1 M NaCl, 10 mM Tris-HCL (pH 7.6), 1 mM EDTA, 1% Triton X-100, pH 7.6 ). Cell lysates were sonicated and centrifuged at 14,000 rpm for 2 min. Protein concentration was determined using BCA assay (PIERCE, USA #23223). 10 microgram whole cell extracts were loaded on SDS-gel (10-20% Tricine gradient gel) and blotted on nitrocellulose membrane (0.2 μm pore, Invitrogen, #LC2000 ). Blot was incubated first with monoclonal antibody, phosphor-p70 S6 Kinase (Thr389)(1A5) mouse mAb (Cell signaling technology, #9206) at 1:2000 dilution, then with secondary antibody, goat anti-mouse IgG HRP (Santa Cruz, USA, #SC2055) at 1:10000. Protein load was control by measuring β-actin using anti mouse β-actin (Sigma, Switzerland, #A-5441). The signals were detected using ECL plus Western Blotting Detection System (Amersham Biosciences; RPN2132). Membrane was exposed to X-ray film for 30′ (Hyperfilm ECL; High performance chemiluminescence film, Amersham Biosciences; RPN1674 ) and films were scanned with ChemiGenius 2 machine (Syngene, UK). The signals were quantified by using GeneTools software (Syngene, UK). Signal of phosphorylated p70S6K was normalized to the protein load control β-actin, and vehicle was set up as 100%.

[1] = 10 μM single agent, insulin 100 nM

CO[C@H]1C[C@@H]2CC[C@@H](C)[C@@](O)(O2)C(=O)C(=O)N2CCCC[C@H]2C(=O)O[C@H]([C@H](C)C[C@@H]2CC[C@@H](O)[C@H](OC)C2)CC(=O)[C@H](C)/C=C(\C)[C@@H](O)[C@@H](OC)C(=O)[C@H](C)C[C@H](C)/C=C/C=C/C=C/1C [Rapa, rapamycin, reference compound]
Phosphorylated p70S6K (Thr389) level, % vs. Vehicle (100 nM, 30 min pretreatment then insulin 100 nM 30 min, normalized to β-actin): *

Oc1ccc(C=Cc2cc(O)cc(O)c2)cc1 [Resveratrol, resveratrol]
Phosphorylated p70S6K (Thr389) level, % vs. Vehicle (0.1 μM single agent, insulin 100 nM): 95.23%
Phosphorylated p70S6K (Thr389) level, % vs. Vehicle (1 μM single agent, insulin 100 nM): 106.9157%
Phosphorylated p70S6K (Thr389) level, % vs. Vehicle [1]: 132.715%
effect on phosphorylated p70S6K (Thr389) amount (in words) (0.1, 1 and 10 microM): no influence

(−)-epigallocatechin gallate [EGCG]
Phosphorylated p70S6K (Thr389) level, % vs. Vehicle [1]: 117.20%
effect on phosphorylated p70S6K (Thr389) amount (in words) (10 microM): little effect
